Drawing on article PMC8653674, “Design, Synthesis, Docking Study and Biological Evaluation of 4-Hydroxy-2H-benzo[e][1,2]thiazine-3-carboxamide 1,1-dioxide Derivatives as Anti-HIV Agents” (Iranian Journal of Pharmaceutical Research : IJPR, 2021), this text covers EC50, CC50 and melting point for 16 compounds.

For data set [1], the system named is single-cycle replicable HIV NL4-3 virions in Hela cells. Kind of data set: single cycle HIV-1 replication assay (inhibition of p24 expression, capture ELISA). It is filed as cell-based. How it is done:
(§1) The anti-HIV-1 activity of target compounds was evaluated in a single cycle replication assay evaluated in our laboratory and reported previously. In this assay, the single-cycle replicable HIV NL4-3 virions (200 ng p24) were inoculated concurrently with compounds in different concentrations to the Hela cells. The inhibition rate (%) of p24 expression was measured by capture ELISA (Biomerieux, France) 72 hours after inoculation. Percentage inhibition of p24 expression in treated culture was calculated as inhibition rate of p24 (%). The XTT (sodium3-[1(phenylaminocarbonyl)-3,4-tetrazolium]-bis(4-methoxy-6-nitro)benzene sulfonic acid) proliferation assay was conducted to evaluate the cellular toxicity according to the kit instructions. The cytotoxic concentration that reduced the number of viable cells by 50% (CC50) was calculated after the determination of p24 load in the HIV-1 replication assay plates ([37]-[40]).
(§2) Fourteen 1,2-benzothiazine-3-carboxamide 1,1-dioxide derivatives containing different substituents at N-2 positions (12 and 13a-m) were synthesized and evaluated to inhibit the single-cycle HIV replication inhibition HeLa cell culture. Cytotoxicity of compounds was also tested in the same cell line to ensure the safety of compounds. Raltegravir was used as a positive control. Anti-HIV activity and cytotoxicity of compounds were expressed as EC50 and CC50, respectively. Selectivity Index (SI) was calculated using CC50/EC50 ratio.

Data set [2] can be described thus: XTT proliferation assay for cellular toxicity. The format is cell-based. The settings on record: human; cytotoxicity in Hela cells, XTT. As for the experimental part: as §1, §2
A general note: Formazan colour is commonly taken as a measure of viable cells.

The test system of data set [3] is Hela cells. Kind of data set: XTT proliferation assay for cellular toxicity. It is filed as cell-based. How it is done:
as §1, §2

The subject of data set [4] is single-cycle replicable HIV NL4-3 virions in Hela cells. Set-up: method as in previously reported (b6). The settings on record: piroxicam value in Table 1, said in b54 to be previously reported; ref previously reported (b6); cited from earlier work.
Setting [5] is: Human immunodeficiency virus 1, NL43, HeLa, 72 h.

Read-outs that look alike come from different tables or passages of the source. Where only a bound is given, the exact number is not on record here.

As a reminder, the EC50 is the concentration at which the effect is half-maximal. For orientation: CC50 means the concentration giving 50% cytotoxicity. Higher therefore signals lower toxicity to the cells. Turning to `NC(=O)C1=C(O)c2ccccc2S(=O)(=O)N1Cc1ccccc1Cl` [Compound 13g, 2-(2-Chlorobenzyl)-4-hydroxy-2H-benzo[e][1,2]thiazine-3-carboxamide 1,1-dioxide], the concentration giving a half-maximal response (EC50) in data set [1] (setting [5]) turned out to be 40 µM. This compound came in with a CC50 at 72 h in data set [2] of 650 µM.

What is called melting point is the temperature of the solid-liquid transition. The compound `COc1cccc(CN2C(C(N)=O)=C(O)c3ccccc3S2(=O)=O)c1` [Compound 13f, 4-Hydroxy-2-(3-methoxybenzyl)-2H-benzo[e][1,2]thiazine-3-carboxamide 1,1-dioxide] had a melting point of 273 to 275 °C. The EC50 in data set [1] (setting [5]) stood at 50 µM. In addition, in data set [2], it took 640 µM to reach half-maximal cytotoxicity (CC50 at 72 h).

As for `NC(=O)C1=C(O)c2ccccc2S(=O)(=O)N1Cc1ccccc1` [Compound 13c, 2-Benzyl-4-hydroxy-2H-benzo[e][1,2]thiazine-3-carboxamide 1,1-dioxide], the melting point was 270 to 275 °C. The compound further came in with a half-maximal effective concentration (EC50) in data set [1] (setting [5]) of 45 µM. In addition, in data set [2], half-maximal cytotoxicity (CC50 at 72 h) was put at 600 µM.

In turn, `NC(=O)C1=C(O)c2ccccc2S(=O)(=O)N1Cc1ccc(Cl)cc1` [Compound 13h, 2-(4-Chlorobenzyl)-4-hydroxy-2H-benzo[e][1,2]thiazine-3-carboxamide 1,1-dioxide] returned an EC50 in data set [1] (setting [5]) of 55 µM. The compound further displayed a CC50 at 72 h in data set [2] of 610 µM.

Consider `NC(=O)C1=C(O)c2ccccc2S(=O)(=O)N1CC1CCCCC1` [Compound 13b, 2-(Cyclohexylmethyl)-4-hydroxy-2H-benzo[e][1,2]thiazine-3-carboxamide 1,1-dioxide], for which the melting point fell in the range of 263 to 264 °C. In data set [1] (setting [5]), this compound returned an EC50 of 100 µM. Moreover, in data set [2], half-maximal cytotoxicity (CC50 at 72 h) was put at 400 µM.

In data set [1] (setting [5]), `Cc1ccc(CN2C(C(N)=O)=C(O)c3ccccc3S2(=O)=O)cc1` [Compound 13d, 4-Hydroxy-2-(4-methylbenzyl)-2H-benzo[e][1,2]thiazine-3-carboxamide 1,1-dioxide] displayed an EC50 of 25 µM. The cytotoxic concentration (CC50) at 72 h in data set [2] was determined as 680 µM.

As to `CCN1C(C(N)=O)=C(O)c2ccccc2S1(=O)=O` [Compound 13a, 2-Ethyl-4-hydroxy-2H-benzo[e][1,2]thiazine-3-carboxamide 1,1-dioxide], a half-maximal response in data set [1] (setting [5]) (EC50) required 80 µM. This compound also had a CC50 at 72 h in data set [2] of 550 µM.

“2-(3,4-Dichlorobenzyl)-4-hydroxy-2H-benzo[e][1,2]thiazine-3-carboxamide 1,1-dioxide [Compound 13i]”: the EC50 in data set [1] (anti-HIV activity, single-cycle HIV NL4-3 in Hela cells, p24 at 72 hours, read-out: EC50) was 110 µM. This compound returned a 50% cytotoxic concentration (CC50) in data set [3] of 510 µM.

Regarding `NC(=O)C1=C(O)c2ccccc2S(=O)(=O)N1Cc1ccccc1F` [Compound 13j, 2-(2-Fluorobenzyl)-4-hydroxy-2H-benzo[e][1,2]thiazine-3-carboxamide 1,1-dioxide], the melting point was 268 to 273 °C. In addition, the EC50 in data set [1] (setting [5]) stood at 35 µM. In data set [2], this compound came in with a CC50 at 72 h of 680 µM.

On to `NC(=O)C1=C(O)c2ccccc2S(=O)(=O)N1Cc1ccc([N+](=O)[O-])cc1` [Compound 13m, 4-Hydroxy-2-(4-nitrobenzyl)-2H-benzo[e][1,2]thiazine-3-carboxamide 1,1-dioxide], for which the melting point is 288 °C (dec.). In data set [1] (setting [5]), this compound had a 50% effective concentration (EC50) of 25 µM. In data set [2], this compound returned a cytotoxic concentration (CC50) at 72 h of 650 µM.

For the compound `NC(=O)C1=C(O)c2ccccc2S(=O)(=O)N1Cc1ccc(F)cc1` [Compound 13l, 2-(4-Fluorobenzyl)-4-hydroxy-2H-benzo[e][1,2]thiazine-3-carboxamide 1,1-dioxide], the EC50 in data set [1] (setting [5]) came to 20 µM. Further, in data set [2], the midpoint of cytotoxicity, the CC50 at 72 h, lay at 650 µM.

Consider `NC(=O)C1=C(O)c2ccccc2S(=O)(=O)N1` [Compound 12, 4-hydroxy-2H-benzo[e][1,2]thiazine-3-carboxamide 1,1-dioxide], for which the melting point was 244 °C (dec.). The half-maximal effective concentration (EC50) in data set [1] (setting [5]) was determined as 105 µM. Besides, the CC50 at 72 h in data set [2] was determined as 950 µM.

Turning to `Cc1nnc(C(=O)NC(C)(C)c2nc(C(=O)NCc3ccc(F)cc3)c(O)c(=O)n2C)o1` [Raltegravir, raltegravir, reference compound], the EC50 in data set [1] (setting [5]) was 0.9 µM. This compound displayed a cytotoxic concentration (CC50) at 72 h in data set [2] of more than 500 µM.

In turn, `Cc1ccccc1CN1C(C(N)=O)=C(O)c2ccccc2S1(=O)=O` [Compound 13e, 4-Hydroxy-2-(2-methylbenzyl)-2H-benzo[e][1,2]thiazine-3-carboxamide 1,1-dioxide] showed a melting point of 268 to 271 °C. Further, a half-maximal response in data set [1] (setting [5]) (EC50) required 55 µM. For the same compound, half-maximal cytotoxicity in data set [2] (CC50 at 72 h) was put at 650 µM.

`NC(=O)C1=C(O)c2ccccc2S(=O)(=O)N1Cc1cccc(F)c1` [Compound 13k, 2-(3-Fluorobenzyl)-4-hydroxy-2H-benzo[e][1,2]thiazine-3-carboxamide 1,1-dioxide]: the melting point is 271 to 275 °C. In data set [1] (setting [5]), the EC50 was 60 µM. Moreover, it took 550 µM to reach half-maximal cytotoxicity in data set [2] (CC50 at 72 h).

With `CN1C(C(=O)Nc2ccccn2)=C(O)c2ccccc2S1(=O)=O` [Piroxicam, piroxicam, reference compound], in data set [4], the EC50 is 120 µM. Also, half-maximal cytotoxicity in data set [2] (CC50 at 72 h) was put at 900 µM.
